Results published in patent publication US10696637B2, “Nitrogen-containing heterocyclic compound” (FUJIFILM Corporation, priority 2015, dated 2020).

Tested on: CXCL10 production
Experiment: CXCL10 production inhibition test
Type: cell-based
Settings: Endothelial cell; test compound 0.1 μmol/L; human umbilical vein-derived endothelial cells; TNFα 10 ng/mL; supernatant 72 hours after stimulation; ELISA; read-out: Rate of inhibition of CXCL10 production
Procedure: (CXCL10 Production Inhibition Test)
0.5×10^4 or 1×10^4 human umbilical vein-derived endothelial cells were suspended in 100 μL of an EGM-2 BulletKit medium (without GA) or a Medium-200 medium supplemented with an EGM-2 SingleQuots kit (without GA), inoculated to a 96-well plate and cultured overnight. 100 μL of a solution of each test compound diluted with the same medium as that used in the inoculation was added to the cultured cells (final concentration of the test compound: 0.1 μmol/L). 1 hour thereafter, TNFα was added thereto at a final concentration of 10 ng/mL. 72 hours after the stimulation, the supernatant was recovered, and the amount of CXCL10 produced in the culture supernatant was determined using an ELISA kit (Peprotech, 900-109).
The rate of inhibition was calculated according to the following expression: Rate of inhibition (%)=100−(Amount of CXCL10 produced in the presence of the test compound/Amount of CXCL10 produced in the absence of the test compound)×100

| Structure (SMILES) | inhibition at 0.1 µM [%] |
| --- | --- |
| CCn1c(=O)cc(C)c2cc(-c3cccnc3-c3ccccc3)ccc21 [Example 291, 1-ethyl-4-methyl-6-(2-phenylpyridin-3-yl)quinolin-2(1H)-one] | ≥ 50 |
| CCCn1cc(-c2ccccc2)n(-c2ccc3c(c2)c(N2CCOCC2)cc(=O)n3CC)c1=O [Example 265, 1-ethyl-4-(morpholin-4-yl)-6-(2-oxo-5-phenyl-3-propyl-2,3-dihydro-1H-imidazol-1-yl)quinolin-2(1H)-one] | ≥ 50 |
| CCn1c(=O)cc(C2CCN(C)CC2)c2cc(C(=O)N3CCCc4ccccc43)ccc21 [Example 11, 6-(3,4-dihydroquinolin-1(2H)-ylcarbonyl)-1-ethyl-4-(1-methylpiperidin-4-yl)quinolin-2(1H)-one] | ≥ 50 |
| CCn1c(=O)cc(N2CCOCC2)c2cc(-n3c(-c4ccc(C(F)(F)F)cc4)cn(C)c3=O)ccc21 [Example 270, 1-ethyl-6-(3-methyl-2-oxo-5-(4-(trifluoromethyl)phenyl)-2,3-dihydro-1H-imidazol-1-yl)-4-(morpholin-4-yl)quinolin-2(1H)-one] | ≥ 50 |
| CCn1c(=O)cc(N2CCOCC2)c2cc(-n3ccnc3-c3ccccc3)ccc21 [Example 255] | ≥ 50 |
| CCCCn1cc(-c2ccccc2)n(-c2ccc3c(c2)c(N2CCOCC2)cc(=O)n3CC)c1=O [Example 264, 6-(3-butyl-2-oxo-5-pheynyl-2,3-dihydro-1H-imidazazol-1-yl)-1-ethyl-4-(morpholin-4-yl)quinolin-2(1H)-one] | ≥ 50 |
| CCn1c(=O)cc(N2CCOCC2)c2cc(-n3c(-c4ccccc4)c[nH]c3=O)ccc21 [Example 3, 1-ethyl-4-(morpholin-4-yl)-6-(2-oxo-5-phenyl-2,3-dihydro-1H-imidazol-1-yl)quinolin-2(1H)-one] | ≥ 50 |
| CCn1c(=O)cc(N2CCOCC2)c2cc(-c3nccn3-c3ccccc3)ccc21 [Example 257, 1-ethyl-4-(morpholin-4-yl)-6-(1-phenyl-1H-imidazol-2-yl)quinolin-2(1H)-one] | ≥ 50 |
| CCn1c(=O)cc(N2CCOCC2)c2cc(-n3c(-c4ccccc4)cn(CCOC)c3=O)ccc21 [Example 263, 1-ethyl-6-(3-(2-methoxyethyl)-2-oxo-5-phenyl-2,3-dihydro-1H-imidazol-1-yl)-4-(morpholin-4-yl) quinolin-2(1H)-one] | ≥ 50 |
| CCn1cc(-c2ccccc2)n(-c2ccc3c(c2)c(N2CCOCC2)cc(=O)n3CC)c1=O [Example 266, 1-ethyl-6-(3-ethyl-2-oxo-5-phenyl-2,3-dihydro-1H-imidazol-1-yl)-4-(morpholin-4-yl)quinolin-2(1H)-one] | ≥ 50 |
| CCn1c(=O)cc(C2CCN(C)CC2)c2cc(C(=O)N(C)c3ccc(C)c(C)c3)ccc21 [Example 294, N-(3,4-dimethylphenyl)-1-ethyl-N-methyl-4-(1-methylpiperidin-4-yl)-2-oxo-1,2-dihydroquinoline-6-carboxamide] | ≥ 50 |
| CCn1c(=O)cc(N2CCOCC2)c2cc(-c3ccccc3-c3ccccc3)ccc21 [Example 258, 6-(biphenyl-2-yl)-1-ethyl-4-(morpholin-4-yl)quinolin-2(1H)-one] | ≥ 50 |
| CCn1c(=O)cc(C2CC2)c2cc(-c3nc(C)[nH]c3-c3ccccc3)ccc21 [Example 283, 4-cyclopropyl-1-ethyl-6-(2-methyl-5-phenyl-1H-imidazol-4-yl)quinolin-2(1H)-one] | ≥ 50 |
| CCn1c(=O)cc(C(C)C)c2cc(N(C)C(=O)c3ccc(Cl)cc3)ccc21 [Example 16, 4-chloro-N-(1-ethyl-2-oxo-4-(propan-2-yl)-1,2-dihydroquinolin-6-yl)-N-methylbenzamide] | ≥ 50 |
| CCn1c(=O)cc(N2CCOCC2)c2cc(-n3c(-c4ccccc4)cn(CCN4CCCCC4)c3=O)ccc21 [Example 259, 1-ethyl-4-(morpholin-4-yl)-6-(2-oxo-5-phenyl-3-(2-(piperidin-1-yl)ethyl)-2,3-dihydro-1H-imidazol-1-yl)quinolin-2(1H)-one] | ≥ 50 |
| CCn1c(=O)cc(N2CCOCC2)c2cc(N3C(=O)CC[C@H]3c3ccccc3)ccc21 [Example 253, 1-ethyl-4-(morpholin-4-yl)-6-((5S)-2-oxo-5-phenylpyrrolidin-1-yl)quinolin-2(1H)-one] | ≥ 50 |
| CCn1c(=O)cc(C2CCN(C(C)=O)CC2)c2cc(C(=O)N(C)c3ccc(C)cc3)ccc21 [Example 290, 4-(1-acetylpiperidin-4-yl)-1-ethyl-N-methyl-N-(4-methylphenyl)-2-oxo-1,2-dihydroquinoline-6-carboxamide] | ≥ 50 |
